# Experimental data reported in PMC7796031, “Studies of Coumarin Derivatives for Constitutive Androstane Receptor (CAR) Activation” (Molecules, 2020).
# Legend:
# [1] = test system: CAR protein; assay: Immunofluorescence staining for CAR translocation in Hep3B cells; assay type: cell-based, human; conditions: 10 μM, 2 h
# Protocol: (§1) Figure 3 Image of immunofluorescence staining for CAR translocation in Hep3B cells after 6,7-diprenoxycoumarin (50) treatment (A) and scoparone treatment (C). Hep3B cells were treated with 50 (10 μM) for 2 h. The negative control group was pre-treated with 10 nM okadaic acid (OA). The blue and green fluorescence stands for signals of nuclei and CAR protein, respectively. The protein expression of nuclear CAR after 6,7-diprenoxycoumarin (50) treatment for 2 h (B).
# Hep3B cells (4 × 10^5) were grown on coverslips for overnight then washed twice with 1× PBS and fixed with 4% paraformaldehyde in 1× PBS for 30 min at room temperature. Cells were then permeabilized with 1× PBS containing 0.1% (v/v) Triton X-100 for 10–15 min and blocked in 1× PBS containing 5% BSA for 1 h at room temperature. CAR antibody (1:200 dilutions) was added and reacted at room temperature for 2 h in 1× PBS containing 5% BSA. FITC-conjugated goat anti-rabbit IgG antibody was added for another 1 h at room temperature. Coverslips were mounted and images were acquired under a fluorescence microscope.
# [2] = test system: nuclear CAR; assay: Protein expression of nuclear CAR (nuclear extraction, western blot); assay type: cell-based, human; conditions: Hep3B, treatment for 2 h
# Protocol: as §1
# Cells were harvest by centrifugation after trypsin-EDTA treatment. The ice-cold CER I (10 μL/1 × 10^6 cells) was added to the cell pellet following the manufacturer’s instruction. The tube was vigorously vortexed on the highest setting for 15 s to fully suspend the cell pellet, incubated on ice for 10 min, then ice-cold CER II was added to the tube and vortexed for 5 s on the highest setting. After incubating in ice for 1 min, tube was vortexed for 5 s on the highest setting then subjected to centrifuge for 5 min at 16,000× g. The supernatant (cytoplasmic fraction) was […] to a clean pre-chilled tube and the nuclear fraction (pellet) was re-suspended in ice-cold NER. […]
# (§2) Protein concentration of each sample was determined using a BCA Protein Assay Kit (Pirece®, Thermo Scientific). […] The emitted fluorescence from the membrane was caught on a LAS-4000 biomolecule imager (FUJI.).
# [3] = test system: methyl-PP2Ac; assay: PP2Ac methylation status in Hep3B (western blot); assay type: cell-based, human; conditions: Hep3B, 5, 10, 20 and 40 μM, 24 h
# Protocol: Figure 5 The concentration-dependent study of PP2Ac methylation status under 6,7-diprenoxycoumarin (50) treatment. Hep3B cells (1 × 10^6) were treated with 50 (5, 10, 20 and 40 μM) for 24 h. Treated cell lysates were prepared as described in the Methods section and methyl-PP2Ac expression was analyzed by western blot.
# 1 × 10^6 cells were seeded in a 10 cm plate, incubated at 37 °C for overnight and treated with various concentrations of compounds for the indicated times. After incubation, the culture medium was removed and washed twice with 2 mL ice-cold 1× PBS. Three hundred μL of protein lysis buffer (150 mM NaCl, 50 mM Tris-HCl (pH 7.4), 1% SDS, 1% Triton X-100, 1 mM PMSF) was added into each plate, scraped with a rubber policeman, collected into a premarked microtube and the incubated in ice for 1 h, sonicated by Ultrasonic Cell Disruptor for three time at 5 s each. The cell lysated was cleared by centrifugation at 12,000× g for 15 min at 4 °C. Supernatants were transferred into a fresh marked microtube and stored at −20 °C for future use.
# as §2, with “Scientific). Different percentages of SDS-PAGE gels were prepared according to the molecular size of proteins of interest.” for “Scientific).”
# [4] = test system: MRP2; assay: mRNA expression of MRP2 in Hep3B (RT-PCR); assay type: cell-based, human; conditions: 10 μM, 2, 4, 6, 8 and 10 h
# Protocol: Figure 6 The time course study of mRNA expression of MRP2 and UGT1A1 after 10 μM 6,7-diprenoxycoumarin treatment. Hep3B cells were treated with 10 μM 50 for 2, 4, 6, 8 and 10 h. The total mRNA was obtained and the expression of downstream genes were analyzed with PCR. The ratio of MRP2 to GAPDH was calculated using Image J and normalization.
# Total RNA was isolated from control and treated cells using a TRIzol reagent (Invitrogen) according to the manufacturer’s instruction. The RNA concentration was measured by a spectrophotometer and equal amounts of total RNA (2 μg) were reverse—transcribed using a RevertAid First Strand cDNA Synthesis Kit (K1622, Fermentas, Hanover, MD, USA). Amplification of cDNA was performed in the PCR reaction buffer (0.2 mM dNTP, 1.5 mM MgCl2, and 0.5 μM of each primer) containing 2.5 units of Taq DNA polymerase. The PCR products were resolved by agarose electrophoresis, visualized by ethidium bromide straining and quantified by Image J®. The PCR cycling procedures and sequences of primers are listed below. PCR conditions: (1) UGT1A1: 94 °C, 30 s; 62 °C, 45 s; 72 °C, 30 s; 27 cycles; (2) MRP2: 94 °C, 30 s; 62 °C, 45 s; 72 °C, 30 s; 27 cycles; (3) CAR: 94 °C, 30 s; 59 °C, 45 s; 72 °C, 30 s; 35 cycles; (4) GADPH: 94 °C, 30 s; 62 °C, 45 s; 72 °C, 30 s; 27 cycles; (4) gtPBREM: 94 °C, 30 s; 63 °C, 30 s; 68 °C, 60 s; 30 cycles.
# [5] = test system: FXR; parameters: method as in PMID 21649640; conditions: scoparone alone, up to 100 μM; cited from earlier work
# [6] = test system: bile salt export pump; parameters: method as in PMID 21649640; conditions: scoparone 10 μM with chenodeoxycholic acid 10 μM; cited from earlier work
Compound,translocation of CAR protein [1],protein expression of nuclear CAR [2],methyl-PP2Ac (active form of PP2Ac) [3],mRNA expression level of MRP2 [4],FXR activation [5],effect on chenodeoxycholic acid-increased expression of bile salt export pump [6]
"CC(C)=CCOc1cc2ccc(=O)oc2cc1OCC=C(C)C [Compound 50, 6,7-diprenoxycoumarin]",confirmed,increased,increased,enhanced,–,–
"COc1cc2ccc(=O)oc2cc1OC [Compound 39, scoparone]",–,–,–,–,no effect,potentiated
